Residue numbers refer to the chain shown, from its start.
Legend:
Assay in all cases: direct fluorescence titration (ex […] nm, em […] nm), nonlinear regression
Type in all cases: binding
Mus m 1.0102 [1] = target: T1, Mus m 1.0102 (Mus musculus, UniProt P11589); settings: 20 nM protein, Tris-HCl 10 mM pH 7.2, 25 °C; hydrophobic pocket
T1 construct: gene Mup2; recombinant lipocalin allergen
T1 sequence (P11589 19-180): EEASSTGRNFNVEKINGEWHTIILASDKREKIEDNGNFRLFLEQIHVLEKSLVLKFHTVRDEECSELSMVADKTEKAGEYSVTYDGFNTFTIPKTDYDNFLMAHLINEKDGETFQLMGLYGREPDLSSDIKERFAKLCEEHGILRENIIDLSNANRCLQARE

Mus m 1.0102 [2] = target: T2, Mus m 1.0102 (Mus musculus, UniProt P11589, C175A)
T2 construct: gene Mup2; recombinant lipocalin allergen
T2 sequence (P11589 19-180 C175A): T1 sequence (P11589 19-180) with C157A

Mus m 1.0102 [3] = target: T3, Mus m 1.0102 (Mus musculus, UniProt P11589, C156A/C175A); settings: 20 nM protein, Tris-HCl 10 mM pH 7.2, 25 °C; hydrophobic pocket
T3 construct: gene Mup2; recombinant lipocalin allergen
T3 sequence (P11589 19-180 C156A/C175A): T1 sequence (P11589 19-180) with C138A, C157A

Mus m 1.0102 [4] = target: T4, Mus m 1.0102 (Mus musculus, UniProt P11589, C156A); settings: 20 nM protein, Tris-HCl 10 mM pH 7.2, 25 °C; hydrophobic pocket
T4 construct: gene Mup2; recombinant lipocalin allergen
T4 sequence (P11589 19-180 C156A): T1 sequence (P11589 19-180) with C138A

c1ccc(Nc2cccc3ccccc23)cc1 [N-Phenyl-1-naphthylamine]
Kd (Mus m 1.0102 [1]): 25 ± 1.5 nM
Kd (Mus m 1.0102 [2]): 85.5 ± 13.7 nM
Kd (Mus m 1.0102 [3]): 45.2 ± 4 nM
Kd (Mus m 1.0102 [4]): 33.8 ± 6.4 nM
